Test results reported in patent US10537563B2, “Methods for treating ocular disease using inhibitors of CSF-1R” (NOVARTIS AG, priority 2016, dated 2020).

Experiments:
subretinal Iba1+ cells = assay: Cellular infiltration assay in laser CNV model, subretinal Iba1+ microglia; type: in vivo, mouse
Protocol: (§1) In one experiment, Compound (Ia) or vehicle was dosed orally at 30, 100 or 200 mg/kg starting about 1 hour before laser and continued administration daily until the day before tissue harvest.
(§2) In a second experiment, mice were dosed daily with 50 mg/kg of Compound (Ia) and with i.p. injections of a mouse anti-VEGF antibody at a dose of 0.3 mg/kg at day 0, 2 and 4. Other groups of mice in the experiment were dosed with monotherapy of Compound (Ia) or the anti-VEGF antibody at higher doses.
(§3) Cellular infiltration into the retina, the PEC or the CNV lesion was assessed after laser application. Eyes were fixed with 4% Paraformaldehyde for ˜90 minutes. After fixation, whole eyes were dissected into the retina and PEC. […]
(§4) Iba1+ cells in the PEC peripheral to the CNV lesion were counted using a different semi-automatic MatLab code. […] The operator is then presented with masked, randomized images and allowed the functionality to remove miscellaneous fluorescence (false positive) and add missed cells (false negative) to the analysis. Confluent microglia cells and CNV lesions were excluded from the quantification analysis. In a study, each assessed condition consisted of 10 eyes from 5 mice and would typically yield 10 data points. […] F4/80+ cells in the retina were counted using a similar semi-automatic MatLab code and followed the same procedure as above. […]

retinal F4/80+ cells = assay: Cellular infiltration assay in laser CNV model, retinal F4/80+ macrophages; type: in vivo, mouse
Protocol: as §1, §2, §3, §4

[1] = tested on: choroidal neovascularization; assay: Laser-induced choroidal neovascularization model, CNV area; type: in vivo, mouse; settings: oral daily, 30, 100 or 200 mg/kg, dose dependent; tissues harvested day 7
Protocol: To investigate the effects of CSF-1R inhibition on ocular angiogenesis and inflammation, Compound (Ia) was assessed in a rodent model of laser-induced choroidal neovascularization (methods below) for effect on blood vessel growth and cellular infiltration after a laser injury. Compound (Ia) was assessed either as a monotherapy or in combination with a suboptimal dose of a VEGF antibody.
as §1, §2
Mouse pupils were dilated with one drop (˜40 μL) of 1% cyclopentolate. Just before anesthesia, pupil dilation was maximized with an additional drop of phenylephrine (usually 10% but occasionally 2.5% depending upon availability). […]
Analysis of neovascularization was completed on tissues harvested 7 days after laser photocoagulation. […] CNV area was quantified using a semi-automated analysis program (Axiovision software version 4.5, Carl Zeiss Microscopy) that outlined the fluorescent blood vessels. […]

VEGF = assay: Interaction with VEGF versus CSF-1 receptor signaling; settings: at concentrations where the signaling of the CSF-1 receptor is strongly or completely inhibited
[2] = tested on: macrophages in areas around the ciliary body; assay: Macrophages around the ciliary body in CX3CR1-GFP reporter mice; type: in vivo, mouse; settings: salt of Compound (Ia), oral 200 mg/kg daily for 14 days
Protocol: To investigate the effects of CSF-1R inhibition on inflammation, Compound (Ia) was assessed in CX3CR1-GFP reporter mice (which report on macrophage and microglia). The presence of macrophages in areas around the ciliary body in the front of the eye (but not in the cornea) was examined and confirmed by anti-GFP immunohistochemistry staining (see panels (a) and (b) in FIG. 4). The arrow-indicated dots are the positive stained macrophage cells).
In this experiment, mice was treated with a salt of Compound (Ia) orally at 200 mg/kg daily for 14 days and immediately examined for the presence of macrophages (see panels (c) and (d) in FIG. 4).

Structure (SMILES) | reduction in subretinal Iba1+ cells (microglia) (subretinal Iba1+ cells; 200 mg/kg oral) | microglia in the subretinal space (subretinal Iba1+ cells; 50 and 200 mg/kg) | reduction in retinal F4/80+ cells (macrophages) (retinal F4/80+ cells; 200 mg/kg oral) | macrophages in the retina (retinal F4/80+ cells; 50 and 200 mg/kg) | reduction in CNV area compared to vehicle [1] [%] | interaction with VEGF (VEGF) | macrophages in areas around the ciliary body, day 14 ([2]; day 14) | macrophages in areas around the ciliary body, day 21 ([2]; day 21) | macrophages in areas around the ciliary body, day 44 ([2]; day 44)
CNC(=O)c1cc(Oc2ccc3nc(N[C@@H]4CCCC[C@H]4O)sc3c2)ccn1 [Compound (Ia), 4-((2-(((1R,2R)-2-hydroxycyclohexyl)amino)benzo[d]thiazol-6-yl)oxy)-N-methylpicolinamide] | 66-99% | significantly reduced | 83-84% | significantly reduced | 75 | not to interact strongly | depleted | started to return | almost back to steady state
CNC(=O)c1cc(Oc2ccc3nc(N[C@H]4CCCC[C@@H]4O)sc3c2)ccn1 [Compound (Ib), 4-((2-(((1S,2S)-2-hydroxycyclohexyl)amino)benzo[d]thiazol-6-yl)oxy)-N-methylpicolinamide] |  |  |  |  |  | not to interact strongly |  |  | 
